Reference: patent US7879795B2, “Enhancement of tigecycline potency using efflux pump inhibitors” (Mpex Pharmaceuticals, Inc., priority 2004, dated 2011)

Columns and labels:
[1] = In vitro stability in rat serum and tissue homogenates (LC/MS/MS); type: in vitro ADME
Experimental: To test the stability of the compounds in vitro, samples were prepared and analyzed by LC/MS/MS according to the following procedure.
Homogenization: A chunk of fresh tissue was weighed and mixed with saline at 1:1 ratio (w/v) in a 12×75 mm polypropylene round bottom tube. The mixture was homogenized with a Polytron homogenizer (on ice, 3×10 seconds with 10 second intervals at the setting of 7).
Incubation and TCA-precipitation: An appropriate amount of a tissue homogenate was pre-warmed at 37° C. for 2 minutes in an Eppendorf tube. The compound to be tested was added to the tube to a final concentration of 2 μg/ml, mixed, and a 60 μl aliquot was immediately taken (as 0 hour sample) and mixed with 120 μl of 4% TCA (trichloroacetic acid) in an Eppendorf tube. The temperature of the tube containing the rest of the tissue sample was returned to 37° C. for incubation. Later, samples were taken as scheduled and mixed with TCA as described above. Plasma and lavage samples were directly incubated with the compounds without addition of saline and homogenization.
LC/MS/MS sample vial preparation: TCA-precipitated sample tubes were vortexed for 30 seconds, centrifuged in a microfuge at top speed (13.2 k rpm) for 5 minutes. The supernatant was collected. The pH was neutralized to about 3.5 with ammonium acetate buffer. The sample (45 μl) was transferred to a glass LC/MS/MS vial (Kimble, 11 mm, 1.5 ml) and 5 μl of an internal standard was added to a final concentration of 500 ng/ml. LC/MS/MS analysis was performed in Chemistry Department of San Diego State University.
LC/MS/MS protocol: Thermo-Finnigan TSQ Quantum triple sector mass spectrometer with electrospray (ESI) ionization was used to analyze the samples. The operation conditions were: Mobile phase of pH 3.00 water/formic acid: acetonitrile-methanol (45%:5%:50% by volume); Thermo-Keystone Betabasic C-18 column (2.1 mm×50 mm) operated at 0.100 mL/min.
Many proteases responsible for degrading EPI compounds are located in […]. Lysozymes typically have an acidic pH (about 4.8-5), whereas the pH in tissue homogenates that were prepared was higher (kidney, pH 6.8; liver, pH 6.6; and lung, pH 7.5). To test the effect of tissue homogenates closer to physiological conditions, the pH was lowered to about 6 by adding acetic acid to the tissue homogenates and compound stability was tested. FIG. 2 depicts the stability of compounds 1 and 3 at different pH. […] The pH-dependent degradation of compound 3 was especially evident in kidney homogenates.
FIG. 4 is a bar graph depicting the stability of compound 3 in the supernatant and pellet of kidney tissue homogenates.

[2] = system: P. aeruginosa, PAM1723, overexpressing the MexAB-OprM efflux pump; test: Levofloxacin potentiation checkerboard assay (broth microdilution); type: cell-based
Experimental: Stock solution was stored at −80° C.
The checkerboard assay was performed in microtiter plates. […] EPIs were diluted in the y axis, each row containing an equal concentration of an EPI. The result of these manipulations was that each well of the microtiter plate contains a unique combination of concentrations of the two agents. The assay was performed in MHB with a final bacterial inoculum of 5×10^5 CFU/ml (from an early-log phase culture). Microtiter plates were incubated during 20 h at 35° C. and were read using a microtiterplate reader (Molecular Devices) at 650 nm as well as visual observation using a microtiter plate-reading mirror.

[3] = Tissue levels in rat six-hour after 8.4 mg/kg IV bolus; type: in vivo; conditions: in words
Experimental: Tissue levels of compounds 1, 2, 3 and 4 were evaluated in kidney, liver and lung six-hour after 8.4 mg/kg IV bolus administration. FIG. 13 depicts the levels as a function of time.
Compound 67, which is the expected metabolite of proteolytic intracellular degradation of compound 3, was detected in rat tissues after IV infusion, confirming the tissue-specific degradation of compound 3 (Tables 9A, B).

[4] = system: strain 29A2 of P. aeruginosa overexpressing MexAB-OprM efflux pump; test: Neutropenic mice lung model of PA infection; type: in vivo; conditions: levofloxacin 30 mg/kg SQ plus EPI IP
Experimental: Neutropenia was induced by cyclophosphamide 100 mg/kg IP on days 3 and 1 prior to infection. The strain 29A2 of P. aeruginosa overexpressing MexAB-OprM efflux pump was grown overnight in Mueller-Hinton Broth (MHB). The next day overnight culture was diluted in fresh MHB and was allowed to re-grow to ˜10^8 CFU/mL (OD600˜0.3). The culture was spun down, washed twice with phosphate buffered saline (PBS) and re-suspended in PBS to ˜4×10^7 CFU/mL. 50 μl of inoculum was used for intratracheal instillation of mice, which were anesthetized with sevoflourane/oxygen. […] Four mice from each treatment group were euthanized at various times after the start of treatment. The lungs were removed aseptically, homogenized in saline, and immediately plated to determine bacterial load (CFU/ml) in infected lungs. P. aeruginosa is plotted as a function of time in FIG. 20.

[5] = Acute toxicity, minimal lethal dose after IV bolus in mice; type: in vivo, mouse; conditions: IV bolus into tail vein, lethal for at least one of three mice
Experimental: Acute toxicity was measured as minimal lethal dose (MLD). MLD is defined as a minimal concentration of a compound that has lethal effect for at least one mouse from the group of three mice after IV bolus injection into the mouse tail vein.

[6] = Serum levels of compound 3 after administration of acylated forms in rats; type: in vivo, rat; conditions: compound 5 8.4 mg/kg injected, compound 43 10 mg/kg two-hour infusion
Experimental: Rats were injected with compound 5 (8.4 mg/kg) and serum levels of the parent compound 3 were evaluated after extraction. The serum levels as a function of time are depicted in FIG. 16.
Rats were infused for two hours with compound 43 at 10 mg/kg and serum levels of the parent compound 3 were evaluated after extraction. FIG. 17 depicts the serum levels of compound 3 as a function of time.

[7] = Stability in human kidney tissue preparations; type: in vitro ADME; conditions: in words
Source text: The pattern of in vitro stability of compound 3 (stable in serum but unstable in tissues) observed in rodents was also reproduced using human kidney tissues or serum. FIG. 7 compares the in vitro stability of compounds 1 and 3 in human kidney tissue preparations.
FIG. 8 depicts formation of the metabolite, compound 67, in human kidney tissue. Concomitant with the disappearance of compound 3, generation of the expected metabolite of the presumed intralysosomal degradation, compound 67, was detected using human kidney.

[8] = Rat serum pharmacokinetics after 2-hour IV infusion; type: in vivo
Experimental: Rat serum pharmacokinetics of compounds 1, 3, 7, and 21 was evaluated after 2-hour IV infusion of 1 mg/ml EPI solution in 0.9% saline. Total infused dose was 10 mg/kg. FIG. 12 depicts the serum concentrations as a function of time. A two-compartment model was used to fit the data and calculate PK parameters.

[9] = Tissue levels after 2-hour IV infusion in rats; type: in vivo, rat; conditions: for concentration at 6 h: 4 h after end of 2-hour IV infusion; for concentration at 6 h / concentration at 2 h: 10 mg/kg; for 2 h/4 h Ratio: Table 7, 2 h and 6 h; for concentration at 2 h: end of 2-hour IV infusion
Experimental: Levels of EPIs in various tissues were evaluated after 2-hour IV infusion in rats. The rats received 10 mg/kg IV infusion through FVC. Animals were divided into 2 groups: group 1 was sacrificed immediately after the end of infusion and group 2, 2 h or 4 h after the end of infusion. Tissues from each animal were collected, homogenized and compounds were extracted. Tissues were mixed with saline at 1:1 ratio (v/w) in 12×75 mm polypropylene round bottom tubes. The mixtures were homogenized with a Polytron homogenizer (on ice, 3×10-15 seconds with 30 seconds intervals at the setting of 7). 50 μl of homogenized tissue were immediately transferred to an Eppendorf tube and 2-volumes of 4% TCA were added. After vortexing for 30 seconds, the tubes were centrifuged in a microfuge at top speed (13.2 k rpm) for 5 minutes. The supernatant was collected, and 45 μl of the supernatant was transferred to a glass LC/MS/MS vial (Kimble, 11 mm, 1.5 ml) for analysis, which allowed determination of tissue levels of EPIs at the end of the infusion and 2 h or 4 h later.

PAM1723 = conditions: summary of Table 4; in words
Experimental: Stability in rat and human serum was also evaluated using a bioassay. 320 μg/ml of the test compound was treated with 50% serum for 4 hours.
Bioassays as described in Example 62 and Example 65 were used to evaluate the stability of various compounds in serum and rabbit kidney homogenates.

NCCC[C@@H](N)C(=O)N[C@@H](CCc1ccccc1)C(=O)Nc1cnc2ccccc2c1 [Compound 4, 2-(R),5-Diamino-pentanoic acid [3-phenyl-1-(S)-(quinolin-3-ylcarbamoyl)-propyl]-amide]
stability in supernatant of rat kidney tissue homogenates ([1]; in words): neither compound 1 nor compound 4 show any instability
Antibiotic (levofloxacin) MIC in the presence of EPI ([2]; EPI 0 μg/ml (levofloxacin alone)): 2 µg/mL
Antibiotic (levofloxacin) MIC in the presence of EPI ([2]; EPI 1.25 μg/ml): 2 µg/mL
Antibiotic (levofloxacin) MIC in the presence of EPI ([2]; EPI 5 μg/ml): 2 µg/mL
Antibiotic (levofloxacin) MIC in the presence of EPI ([2]; EPI 10 μg/ml): 0.5 µg/mL
Antibiotic (levofloxacin) MIC in the presence of EPI ([2]; EPI 20 μg/ml): 0.06 µg/mL
Antibiotic (levofloxacin) MIC in the presence of EPI ([2]; EPI 40 μg/ml): 0.06 µg/mL
Antibiotic (levofloxacin) MIC in the presence of EPI ([2]; EPI 80 μg/ml): 0.03 µg/mL
Antibiotic (levofloxacin) MIC in the presence of EPI ([2]; EPI […]): 2 µg/mL
MPC8 ([2]; EPI concentration necessary to increase susceptibility to levofloxacin eight-fold): 20 µg/mL
tissue levels at 6 hours after IV injection ([3]; rat kidney, liver and lung, 8.4 mg/kg IV bolus): relatively high levels

NCCC[C@H](NC(=O)C[C@H](N)C(=O)O)C(=O)N[C@H](CCc1ccccc1)C(=O)Nc1cnc2ccccc2c1 [Compound 5, 2-(S)-Amino-N-{4-amino-1-(S)-[3-phenyl-1-(R)-(quinolin-3-ylcarbamoyl)-propylcarbamoyl]-butyl}-succinamic acid]
bacterial load in infected lungs, EPI with levofloxacin [4]: efficacious
MLD (minimal lethal dose) [5]: 75 mg/kg
in vitro levofloxacin potentiating activity ([2]; in words): devoid of levofloxacin potentiating activity
metabolism in serum to produce compound 3 [6]: readily metabolized

NC(CCc1ccccc1)C(=O)Nc1cnc2ccccc2c1 (stereo in doubt) [Compound 67, 2-(S)-Amino-4-phenyl-N-quinolin-3-yl-butyramide]
level of degradation product 67 formed from compound 3 ([1]; rat kidney homogenates, as a function of time): increased
detection of metabolite 67 in rat tissues after IV administration of compound 3 [3]: detected
generation of metabolite 67 from compound 3 in human kidney [7]: detected

NCCC[C@H](N)C(=O)N[C@H](CCc1ccccc1)C(=O)Nc1ccc2ncccc2c1 [Compound 7, 2-(S),5-Diamino-pentanoic acid [3-phenyl-1-(R)-(quinolin-6-ylcarbamoyl)-propyl]-amide]
serum PK profile after 2-hour IV infusion ([8]; 10 mg/kg, in words): best serum PK profile
clearance ([8]; serum, 2-hour IV infusion, total dose 10 mg/kg, two-compartment model): 6.5 mL/min/kg
concentration at 6 h ([9]; rat kidney): 960 ng/mL
2 h/4 h Ratio ([9]; rat kidney): 57.37
concentration at 2 h ([9]; rat kidney): 55400 ng/mL
concentration at 6 h ([9]; rat liver): 270 ng/mL
2 h/4 h Ratio ([9]; rat liver): 29.85
concentration at 2 h ([9]; rat liver): 7960 ng/mL
concentration at 6 h ([9]; rat lung): 3170 ng/mL
2 h/4 h Ratio ([9]; rat lung): 4.11
concentration at 2 h ([9]; rat lung): 13000 ng/mL
tissue levels and clearance from tissues after 2-hour IV infusion ([9]; rat, in words): cleared from tissues relatively fast

N[C@@H](CC(=O)O)C(=O)NCCC[C@H](N)C(=O)N[C@H](CCc1ccccc1)C(=O)Nc1cnc2ccccc2c1 [Compound 34, 3-(S)-Amino-N-{4-(S)-amino-4-[3-phenyl-1-(R)-(quinolin-3-ylcarbamoyl)-propylcarbamoyl]-butyl}-succinamic acid]
MLD (minimal lethal dose) [5]: 50 mg/kg
stability in rat serum (PAM1723): unstable in rat serum
